Active and inactive are the calls of the source. The rule behind the calls is not given here.

In assay [1] the test system is SiHa. In words: Induction of apoptosis in human SiHa cells assessed as viable cells at 2.5 uM incubated after 48 hrs by annexin V-FITC/PI staining based flow cytometry (reference value: 90.4 %). It is filed as functional. The settings on record: read-out: Activity.
The subject of assay [2] is SiHa. As to the kind of experiment: Synergistic antiproliferative activity against human SiHa cells assessed as combination index at 0.75 uM incubated for 72 hrs in presence of 0.01 uM cisplatin by CCK-8 assay. The assay is classed as functional.
Assay [3] concerns SiHa. As to the kind of experiment: Synergistic antiproliferative activity against human SiHa cells assessed as combination index at 0.5 uM incubated for 72 hrs in presence of 10 uM cisplatin by CCK-8 assay. The assay is classed as functional.
Assay [4] has as its system SiHa. In words: Inhibition of cell migration in human SiHa cells at 0.05 uM measured for 24 to 48 hrs by microscope based wound healing assay. The assay is classed as functional. Particulars: time 24-48 hrs.
For assay [5], the system named is SiHa. In words: Synergistic antiproliferative activity against human SiHa cells assessed as combination index at 10 uM incubated for 72 hrs in presence of 0.01 uM cisplatin by CCK-8 assay. It is filed as functional. For orientation: Formazan colour is commonly taken as a measure of viable cells.
The subject of assay [6] is SiHa. As to the kind of experiment: Induction of apoptosis in human SiHa cells assessed as late apoptotic cells at 1 uM incubated after 48 hrs by annexin V-FITC/PI staining based flow cytometry (reference value: 6.93 %). The assay is classed as functional. (A flow cytometer gives signals particle by particle.)
For assay [7], the system named is SiHa. In words: Induction of apoptosis in human SiHa cells assessed as early apoptotic cells at 0.05 uM incubated after 48 hrs by annexin V-FITC/PI staining based flow cytometry (reference value: 2.05 %). The assay is classed as functional.
Assay [8] concerns SiHa. In words: Induction of apoptosis in human SiHa cells assessed as early apoptotic cells at 2.5 uM incubated after 48 hrs by annexin V-FITC/PI staining based flow cytometry (reference value: 2.05 %). The assay is classed as functional.
Assay [9] has as its target Protein cereblon/Heat shock protein HSP 90-alpha/Heat shock protein HSP 90-beta (Homo sapiens) (UniProt P07900+P08238+Q96SW2). In words: Protac activity at CRBN/Hsp90 in human SiHa cells assessed as decrease in mTOR protein expression level at 0.01 to 1 uM incubated for 10 hrs by Western blot analysis. The assay is classed as cell-based. Particulars: dose 0.01-1 µM. In general terms: A western blot detects proteins with antibodies after separation by electrophoresis.

The test system of assay [10] is SiHa. In words: Synergistic antiproliferative activity against human SiHa cells assessed as combination index at 1 uM incubated for 72 hrs in presence of 0.32 uM cisplatin by CCK-8 assay. It is filed as functional.
Assay [11] relates to SiHa. As to the kind of experiment: Synergistic antiproliferative activity against human SiHa cells assessed as combination index at 1 uM incubated for 72 hrs in presence of 0.1 uM cisplatin by CCK-8 assay. The assay is classed as functional.

Turning to `CC1(C)CC(=O)c2c(C(F)(F)F)nn(-c3ccc(C(N)=O)c(N[C@H]4CC[C@H](OC(=O)CNC(=O)CCCCCCCNc5cccc6c5CN(C5CCC(=O)NC5=O)C6=O)CC4)c3)c2C1` (stereo partly specified), the viability at 2.5 µM in the assay with SiHa [1] came out at 55.3%. Also, the CI in the assay on SiHa [2] came out at 0.2; in the assay on SiHa [3] it was 0.17; with SiHa [5], 2.19; with SiHa [10] it was 0.2; in the assay with SiHa [11], 0.21. Also, the inhibition entry in the assay with SiHa [4] was “Active”. Moreover, the Activity is given as 24.2% in the assay with SiHa [6], 2.44% in the assay with SiHa [7] and 21.35% in the assay with SiHa [8]. In addition, in assay [9], the outcome was inactive.

For the origin of these results see ChEMBL document CHEMBL5579824, “Novel Hsp90-Targeting PROTACs: Enhanced synergy with cisplatin in combination therapy of cervical cancer” (Eur J Med Chem, 2024).
